Experiments:
Assay type in all cases: physicochemical
[1] = Physical properties of the fluids (boiling point, gel temperature, pour point); conditions: for boiling point: ambient / atmospheric pressure
From the text: The pumping power calculation was made for various fluorinated fluids and is presented in TABLE 5, along with various physical properties of the fluids.

[2] = Freezing or pour point measurement; conditions: 1 ml sample cooled with liquid nitrogen; for pour point: transparent glassy solid
Procedure: Freezing or pour points were measured for 3 related hydrofluoroether samples:
The freeze and or pour points were measured by cooling a 1 ml sample contained in a double walled glass tube. The outer tube was sealed at both ends and had side ports for the addition of nitrogen gas. The inner tube was sealed at one end. The annular space between the tubes was purged with dry nitrogen and sealed. The sample was introduced into the inner tube and sealed with a septum. The temperature of the sample contained in the inner tube was monitored with an Omega Model DP-41 (available from Omega Engineering, Inc., Stamford, Conn.) resistance thermal device inserted into the fluid. The apparatus was lowered into the dewar flask of liquid nitrogen.
If the material froze to a white solid, a freezing point is reported. If instead the material became a transparent glassy solid, a pour point is reported.
The resistance thermal device was not calibrated at temperatures less than −100° C.

[3] = Liquid density, Anton-Parr densitometer
Procedure: The liquid density of n-C3F7CF(OC2H5)CF(CF3)2 was measured from 10° C. to 90° C. using an Anton-Parr Model DMA58 densitometer with a DMA602 external cell. Densities below this temperature were obtained by linear extrapolation of the available data.

[4] = Kinematic viscosity, Cannon-Fenske viscometer
Procedure: The kinematic viscosity of n-C3F7CF(OC2H5)CF(CF3)2 was measured using a Cannon-Fenske viscometer over the temperature range −80° C. to 23° C. Data were regressed using methods outlined in ASTM Standard D 341-77.

[5] = Specific heat by differential scanning calorimetry (ASTM E 1269-90)
Procedure: The specific heat of n-C3F7CF(OC2H5)CF(CF3)2 was measured by differential scanning calorimetry according to ASTME 1269-90 over a temperature range of −50° C. to 50° C.

[6] = Distillation curve, head temperature vs. percent boiled; conditions: until over 95% of the fluid had boiled over
Procedure: H-GALDEN™ ZT-130 fluid (199 grams) was distilled from a 250 mL boiling flask using a 12 inch (30 cm) downward slanting shell-in-tube condenser into another 250 mL receiver flask. The weight of the fluid captured by the receiver was continuously monitored using an Ohaus Model TP4000D digital balance (available from Ohaus Corp., Florham Park, N.J.). The head temperature of the distillation apparatus was monitored using a type-J thermocouple. Both weight and temperature measurements were recorded using a LABVIEW SCXI automated data acquisition system (available from National Instruments Corp., Austin, Tex.) at regular intervals during the course of the distillation, which took 20.9 minutes.
The same experiment was repeated except that 211.9 g of n-C3F7CF(OC2H5)CF(CF3)2 was used in place of the H-GALDEN™ ZT-130 fluid and the distillation took place over an 11.5 minute time interval.
Thus, better temperature and viscosity control is possible when the n-C3F7CF(OC2H5)CF(CF3)2 is employed as a wide temperature range heat-transfer fluid.

[7] = Thermal conductivity, transient hot-wire cell (ASTM D 2717-86); conditions: value used in place of n-C3F7CF(OC2H5)CF(CF3)2
Procedure: The thermal conductivity of n-C3F7CF(OC2H5)CF(CF3)2 was not measured. Instead, experimentally-determined values for the hydrofluoroether C4F9OC2H5 were used. These values were determined using a transient, hot-wire thermal conductivity cell over the temperature range of −50° C. to +50° C., according to ASTM D 2717-86. A platinum wire was used in the measurements. […] The thermal conductivity at 25° C. was 0.066 W/m° C.

Compound | Gel temp [1] | Initial Boiling point [1] | boiling point [1] | pour point [2] | other results
FC(F)(F)C(F)(F)C(F)(F)N(C(F)(F)C(F)(F)C(F)(F)F)C(F)(F)C(F)(F)C(F)(F)F [FC-3283, perfluoro(tripropylamine)] | −50 °C | 130 °C | about 130 °C | – | pour point [1]: −50 °C
CCOC(F)(C(F)(F)C(F)(F)F)C(F)(C(F)(F)F)C(F)(F)F (stereo not drawn) [n-C2F5CF(OC2H5)CF(CF3)2] | – | – | – | – | freeze point ([2]; froze to a white solid): −70 °C
CCOC(F)(C(F)(F)C(F)(F)C(F)(F)F)C(F)(C(F)(F)F)C(F)(F)F (stereo not drawn) [n-C3F7CF(OC2H5)CF(CF3)2, 3-ethoxy-perfluoro(2-methylhexane)] | −100 °C | 128 °C | 128 °C | less than −100 °C | Liquid Density at 25° C. [3]: 1614 kg/m^3; Kinematic Viscosity at 25° C. [4]: 0.77 centistokes; Specific Heat at 25° C. [5]: 1128 J/kg° C.; change of boiling point during distillation [6]: remained unchanged
CCOC(F)(C(F)(F)C(F)(F)C(F)(F)C(F)(F)F)C(F)(C(F)(F)F)C(F)(F)F (stereo not drawn) [n-C4F9CF(OC2H5)CF(CF3)2] | – | – | – | −83 °C | –
C4F9OC2H5 | – | – | – | – | thermal conductivity at 25° C. [7]: 0.066 W/m° C.

Reference: patent US6374907B1, “Hydrofluoroether as a heat-transfer fluid” (3M Innovative Properties Company, priority 1999, dated 2002)
